The values below come from patent publication US20250129103A1, “METHODS FOR TREATMENT OF CANCER” (Frontier Medicines Corporation, priority 2022, published 2025).

The nature of data set [1]: Determination of kinetic solubility (pH 7.4). Conditions: phosphate buffer, pH 7.4, aqueous buffer, kinetic from dmso stock, 50 mM phosphate buffer pH 7.4, read-out: Ksol, pH 7.4. It counts as physicochemical. Summed up: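 Sample mixed with 50 mM phosphate buffer, pH 7.4, vortexed, then shaken 2 h at room temperature and centrifuged. Filtrate analysed by HPLC-UV and LC-MS/MS, with solubility read from peak areas against a standard calibration curve.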

The nature of data set [2]: Determination of logD (1-octanol / phosphate buffer pH 7.4). It counts as physicochemical. Conditions: 1-octanol/phosphate buffer, pH 7.4, pH 7.4, 1-octanol/phosphate buffer; read-out: Log D, pH 7.4. The method in brief: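 Shake-flask partition between 1-octanol and 100 mM phosphate buffer pH 7.4, each phase presaturated with the other overnight. Tubes shaken 1 h at 800 rpm, room temperature, then centrifuged. Both phases quantified by LCMS and logD calculated from the ratio.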

In data set [3] the target is KRAS G12C (GMPPNP-loaded) and cRAF (Ras-binding domain) interaction (Homo sapiens (Human), UniProt P01116, C118S/C51S/C80L/G12C). Put plainly: Inhibition of KRAS G12C and cRAF binding (AlphaScreen). Conditions: KRAS G12C loaded with GMPPNP, cRaf RBD, 2 hours preincubation; read-out: Raf-1 RBD K-Ras IC50. The method in brief: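 GMPPNP-loaded KRAS G12C in 25 mM Hepes pH 7.4, 150 mM NaCl, 5 mM MgCl2, 0.01% Triton X-100, 10 μM GMPPNP, 2% DMSO, preincubated with compound 2 h at room temperature. cRAF RBD plus AlphaScreen beads then added for 60-90 min; signal read at 570 nm.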

SMILES strings stand for the structures. pIC50: −log10 of the molar value. Converted amounts (≈) assume the structure as drawn. Bounds are passed on as bounds.

Sequence of KRAS G12C (GMPPNP-loaded) and cRAF (Ras-binding domain) interaction (P01116 other isoform, or with tags, fused parts or gaps G12C/C51S/C80L/C118S): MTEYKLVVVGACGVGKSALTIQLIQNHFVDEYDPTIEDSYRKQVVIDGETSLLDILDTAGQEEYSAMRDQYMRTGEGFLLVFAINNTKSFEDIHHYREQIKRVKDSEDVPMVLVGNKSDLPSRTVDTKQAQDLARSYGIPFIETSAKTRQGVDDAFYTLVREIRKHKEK

Regarding `N#CC[C@H]1CN(c2nc(OC[C@@]34CCCN3C[C@H](F)C4)nc3c(F)c(-c4cccc5cccc(Cl)c45)ncc23)CCN1C(=O)/C=C/CN1CC[C@@H]2COC[C@H]21` [Compound 298], the solubility kinetic at 2 h in data set [1] turned out to be 118 µg/mL (≈ 153 µM). Besides, the logD in data set [2] was 2.99. Besides, in data set [3], the pIC50 was > 8.00.

Consider `N#CC[C@H]1CN(c2nc(OC[C@@]34CCCN3C[C@H](F)C4)nc3c(F)c(-c4cccc5ccc(F)c(F)c45)ncc23)CCN1C(=O)/C=C/CN1CC[C@@H]2COC[C@H]21` [Compound 299], for which the solubility kinetic at 2 h in data set [1] amounted to 118 µg/mL (≈ 153 µM). For the same compound, the logD in data set [2] amounted to 2.95. Besides, the pIC50 in data set [3] is > 8.00.

In the case of `C[C@@H]1CN(C/C=C/C(=O)N2CCN(c3nc(OC[C@@]45CCCN4C[C@H](F)C5)nc4c(F)c(-c5cccc(Cl)c5C5CC5)ncc34)C[C@@H]2CC#N)C[C@H](C)O1` [Compound 300], in data set [1], the solubility kinetic at 2 h amounted to 124 µg/mL (≈ 164 µM). Moreover, in data set [2], the logD is 4.05. Besides, the pIC50 in data set [3] is 7.00 to 8.00.

For `C[C@H]1CN(C/C=C/C(=O)N2CCN(c3nc(OC[C@@]45CCCN4C[C@H](F)C5)nc4c(F)c(-c5cccc(Cl)c5C5CC5)ncc34)C[C@@H]2CC#N)C[C@H](C)O1` [Compound 302], the solubility kinetic at 2 h in data set [1] was 118 µg/mL (≈ 155 µM). Also, in data set [2], the logD was found to be 4.21. In data set [3], the pIC50 was > 8.00.

Regarding `C[C@@H]1CN(C/C=C/C(=O)N2CCN(c3nc(OC[C@@]45CCCN4C[C@H](F)C5)nc4c(F)c(-c5cccc(Cl)c5C(F)(F)F)ncc34)C[C@@H]2CC#N)C[C@H](C)O1` [Compound 306], in data set [1], the solubility kinetic at 2 h stood at 128 µg/mL (≈ 163 µM). In addition, the logD in data set [2] came to 3.5. The negative logarithm of the IC50 (pIC50) in data set [3] was 7.00 to 8.00.

On to `C[C@@H]1CN(C/C=C/C(=O)N2CCN(c3nc(OC[C@@]45CCCN4C[C@H](F)C5)nc4c(F)c(-c5cccc(Cl)c5C(F)(F)F)ncc34)C[C@@H]2CC#N)C[C@@H](C)O1` [Compound 307], for which the solubility kinetic at 2 h in data set [1] is 124 µg/mL (≈ 157 µM). For the same compound, the logD in data set [2] worked out at 3.68. The negative logarithm of the IC50 (pIC50) in data set [3] is > 8.00.

For `C[C@H]1CN(C/C=C/C(=O)N2CCN(c3nc(OC[C@@]45CCCN4C[C@H](F)C5)nc4c(F)c(-c5cccc(Cl)c5C(F)(F)F)ncc34)C[C@@H]2CC#N)C[C@H](C)O1` [Compound 308], the solubility kinetic at 2 h in data set [1] turned out to be 80.5 µg/mL (≈ 102 µM). For the same compound, the logD in data set [2] came to 3.75. In data set [3], the pIC50 is 7.00 to 8.00.

On to `CO[C@H]1CCN(C/C=C/C(=O)N2CCN(c3nc(OC[C@@]45CCCN4C[C@H](F)C5)nc4c(F)c(-c5cccc(Cl)c5C(F)(F)F)ncc34)C[C@@H]2CC#N)C1` [Compound 309], for which the solubility kinetic at 2 h in data set [1] came to 141 µg/mL (≈ 182 µM). The logD in data set [2] stood at 2.79. For the same compound, the negative logarithm of the IC50 (pIC50) in data set [3] is 7.00 to 8.00.

Turning to `N#CC[C@H]1CN(c2nc(OC[C@@]34CCCN3C[C@H](F)C4)nc3c(F)c(-c4cccc(Cl)c4C(F)(F)F)ncc23)CCN1C(=O)/C=C/CN1CC[C@H](F)C1` [Compound 310], the solubility kinetic at 2 h in data set [1] is 123 µg/mL (≈ 161 µM). For the same compound, the logD in data set [2] is 3.13. For the same compound, the pIC50 in data set [3] is 7.00 to 8.00.

`CN1CC[C@@H]1/C=C/C(=O)N1CCN(c2nc(OC[C@@]34CCCN3C[C@H](F)C4)nc3c(F)c(-c4cccc(Cl)c4C(F)(F)F)ncc23)C[C@@H]1CC#N` [Compound 311]: in data set [1], the solubility kinetic at 2 h came out at 128 µg/mL (≈ 175 µM). In addition, the logD in data set [2] came out at 2.54. Besides, the pIC50 in data set [3] is 6.30 to 7.00.

`N#CC[C@H]1CN(c2nc(OC[C@@]34CCCN3C[C@H](F)C4)nc3c(F)c(-c4cccc(Cl)c4C4CC4)ncc23)CCN1C(=O)/C=C/[C@H]1CCN1C1CC1` [Compound 314]: the solubility kinetic at 2 h in data set [1] was found to be 32.3 µg/mL (≈ 44.2 µM). Also, the logD in data set [2] was found to be 4.05. In addition, the pIC50 in data set [3] is > 8.00.

As to `N#CC[C@H]1CN(c2nc(OC[C@@]34CCCN3C[C@H](O)C4)nc3c2CCN(c2cccc4cccc(Cl)c24)C3)CCN1C(=O)/C=C/CN1CCOCC1` [Compound 316], in data set [1], the solubility kinetic at 2 h stood at 124 µg/mL (≈ 170 µM). The logD in data set [2] turned out to be 2.66. Further, the negative logarithm of the IC50 (pIC50) in data set [3] is > 8.00.

On to `N#CC[C@H]1CN(c2nc(OCC34CCCN3CCC4)nc3c2CCN(c2cccc4cccc(Cl)c24)C3)CCN1C(=O)/C=C/CN1CCN(C2COC2)CC1` [Compound 317], for which, in data set [1], the solubility kinetic at 2 h was 114 µg/mL (≈ 148 µM). Further, the logD in data set [2] is 2.01. The pIC50 in data set [3] is > 8.00.

Consider `N#CC[C@H]1CN(c2nc(OC[C@@]34CCCN3C[C@H](O)C4)nc3c(F)c(-c4cccc5cccc(Cl)c45)ncc23)CCN1C(=O)/C=C/CN1CCOCC1` [Compound 319], for which, in data set [1], the solubility kinetic at 2 h turned out to be 123 µg/mL (≈ 166 µM). For the same compound, in data set [2], the logD was 1.54. Besides, the pIC50 in data set [3] is > 8.00.

Turning to `N#CC[C@H]1CN(c2nc(OC[C@@]34CCCN3C[C@H](O)C4)nc3c(F)c(-c4cccc5ccc(F)c(Cl)c45)ncc23)CCN1C(=O)/C=C/CN1CCOCC1` [Compound 321], the solubility kinetic at 2 h in data set [1] is 162 µg/mL (≈ 214 µM). Further, the logD in data set [2] turned out to be 1.52. In data set [3], the pIC50 was > 8.00.

Turning to `Cc1cc(N)nc([C@H]2Cc3nc(OC[C@@]45CCCN4C[C@H](F)C5)nc(N4CCN(C(=O)/C=C/CN(C)C)[C@@H](CC#N)C4)c3C[C@@H]2C)c1C(F)(F)F` [Compound 323], in data set [1], the solubility kinetic at 2 h turned out to be 74.5 µg/mL (≈ 104 µM). Further, the logD in data set [2] is 2.71. In data set [3], the negative logarithm of the IC50 (pIC50) was 6.30 to 7.00.

On to `N#CC[C@H]1CN(c2nc(OC[C@@]34CCCN3C[C@H](F)C4)nc3c(F)c(-c4cccc5cccc(Cl)c45)ncc23)CCN1C(=O)/C=C/CN1CCN(C2COC2)CC1` [Compound 325], for which the solubility kinetic at 2 h in data set [1] amounted to 115 µg/mL (≈ 144 µM). For the same compound, in data set [2], the logD came out at 2.5. The pIC50 in data set [3] is > 8.00.

In the case of `Cc1noc(/C=C/C(=O)N2CCN(c3nc(OCC45CCCN4CCC5)nc4c(F)c(-c5cccc6cccc(Cl)c56)ncc34)C[C@@H]2CC#N)n1` [Example 5, (S,E)-2-(4-(7-(8-chloronaphthalen-1-yl)-8-fluoro-2-((tetrahydro-1H-pyrrolizin-7a(5H)-yl)methoxy)pyrido[4,3-d]pyrimidin-4-yl)-1-(3-(3-methyl-1,2,4-oxadiazol-5-yl)acryloyl)piperazin-2-yl)acetonitrile], in data set [1], the solubility kinetic at 2 h amounted to 161 µg/mL (≈ 227 µM). Besides, the logD in data set [2] was 2.15. In data set [3], the pIC50 was 7.00 to 8.00.

Regarding `N#CC[C@H]1CN(c2nc(OCC34CCCN3CCC4)nc3c2CCN(c2cccc4cccc(Cl)c24)C3)CCN1C(=O)/C=C/c1nc(C2COC2)no1` [Example 6, (S,E)-2-(4-(7-(8-chloronaphthalen-1-yl)-2-((tetrahydro-1H-pyrrolizin-7a(5H)-yl)methoxy)-5,6,7,8-tetrahydropyrido[3,4-d]pyrimidin-4-yl)-1-(3-(3-(oxetan-3-yl)-1,2,4-oxadiazol-5-yl)acryloyl)piperazin-2-yl)acetonitrile], the solubility kinetic at 2 h in data set [1] was 86.4 µg/mL (≈ 117 µM). The logD in data set [2] was 2.72. For the same compound, in data set [3], the negative logarithm of the IC50 (pIC50) was 7.00 to 8.00.

As to `N#CC[C@H]1CN(c2nc(OC[C@@]34CCCN3C[C@H](F)C4)nc3c2CCN(c2cccc4cccc(Cl)c24)C3)CCN1C(=O)/C=C/c1nc(C2COC2)no1` [Example 7, 2-((S)-4-(7-(8-chloronaphthalen-1-yl)-2-(((2R,7aS)-2-fluorohexahydro-1H-pyrrolizin-7a-yl)methoxy)-5,6,7,8-tetrahydropyrido[3,4-d]pyrimidin-4-yl)-1-((E)-3-(3-(oxetan-3-yl)-1,2,4-oxadiazol-5-yl)acryloyl)piperazin-2-yl)acetonitrile], the solubility kinetic at 2 h in data set [1] turned out to be 0.01 µg/mL (≈ 0.0133 µM). Besides, the logD in data set [2] amounted to 2.69. For the same compound, in data set [3], the pIC50 is > 8.00.
